Data as given in ChEMBL document CHEMBL5465560, “Selectivity Literature for EUbOPEN Chemogenomic Library” (2024).

Experiments:
[1] = target: T1, Serine/threonine-protein kinase TAO1 (Homo sapiens) (UniProt Q7L7X3); test: Selectivity interaction (KinomeScan (DiscoverX)) EUB0000607a TAOK1; conditions: at 10 µM
T1 sequence (whole entry): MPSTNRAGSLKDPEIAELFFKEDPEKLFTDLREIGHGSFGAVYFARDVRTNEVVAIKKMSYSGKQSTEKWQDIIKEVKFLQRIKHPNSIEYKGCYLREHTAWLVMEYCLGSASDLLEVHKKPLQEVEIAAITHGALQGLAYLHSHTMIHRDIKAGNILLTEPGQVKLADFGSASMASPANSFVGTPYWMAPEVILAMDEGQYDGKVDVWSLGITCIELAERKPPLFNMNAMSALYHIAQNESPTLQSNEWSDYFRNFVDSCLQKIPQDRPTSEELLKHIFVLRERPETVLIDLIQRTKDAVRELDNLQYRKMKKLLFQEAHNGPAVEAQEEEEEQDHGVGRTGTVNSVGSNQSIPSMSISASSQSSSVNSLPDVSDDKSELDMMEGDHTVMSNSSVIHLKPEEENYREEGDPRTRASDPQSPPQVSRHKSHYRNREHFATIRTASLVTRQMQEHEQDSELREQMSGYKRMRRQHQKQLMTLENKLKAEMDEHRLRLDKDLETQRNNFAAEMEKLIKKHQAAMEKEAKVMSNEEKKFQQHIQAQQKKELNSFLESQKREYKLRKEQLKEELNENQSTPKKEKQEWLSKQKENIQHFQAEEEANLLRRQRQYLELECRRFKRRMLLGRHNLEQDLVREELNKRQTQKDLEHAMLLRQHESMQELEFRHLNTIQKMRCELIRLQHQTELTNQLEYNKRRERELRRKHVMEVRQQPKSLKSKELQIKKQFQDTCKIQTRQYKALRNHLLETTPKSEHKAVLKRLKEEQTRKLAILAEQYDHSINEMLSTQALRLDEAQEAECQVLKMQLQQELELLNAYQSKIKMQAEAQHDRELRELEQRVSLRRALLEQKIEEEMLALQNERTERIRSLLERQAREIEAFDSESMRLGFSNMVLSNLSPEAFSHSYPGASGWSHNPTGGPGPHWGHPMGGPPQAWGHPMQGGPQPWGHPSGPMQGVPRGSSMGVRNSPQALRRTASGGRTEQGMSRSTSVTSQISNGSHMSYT

[2] = target: Serine/threonine-protein kinase PAK 6 (Homo sapiens) (UniProt Q9NQU5); test: Selectivity interaction (KinomeScan (DiscoverX)) EUB0000595a PAK6; conditions: at 10 µM
Sequence of Serine/threonine-protein kinase PAK 6 (Homo sapiens) (Q9NQU5 whole entry, looked up): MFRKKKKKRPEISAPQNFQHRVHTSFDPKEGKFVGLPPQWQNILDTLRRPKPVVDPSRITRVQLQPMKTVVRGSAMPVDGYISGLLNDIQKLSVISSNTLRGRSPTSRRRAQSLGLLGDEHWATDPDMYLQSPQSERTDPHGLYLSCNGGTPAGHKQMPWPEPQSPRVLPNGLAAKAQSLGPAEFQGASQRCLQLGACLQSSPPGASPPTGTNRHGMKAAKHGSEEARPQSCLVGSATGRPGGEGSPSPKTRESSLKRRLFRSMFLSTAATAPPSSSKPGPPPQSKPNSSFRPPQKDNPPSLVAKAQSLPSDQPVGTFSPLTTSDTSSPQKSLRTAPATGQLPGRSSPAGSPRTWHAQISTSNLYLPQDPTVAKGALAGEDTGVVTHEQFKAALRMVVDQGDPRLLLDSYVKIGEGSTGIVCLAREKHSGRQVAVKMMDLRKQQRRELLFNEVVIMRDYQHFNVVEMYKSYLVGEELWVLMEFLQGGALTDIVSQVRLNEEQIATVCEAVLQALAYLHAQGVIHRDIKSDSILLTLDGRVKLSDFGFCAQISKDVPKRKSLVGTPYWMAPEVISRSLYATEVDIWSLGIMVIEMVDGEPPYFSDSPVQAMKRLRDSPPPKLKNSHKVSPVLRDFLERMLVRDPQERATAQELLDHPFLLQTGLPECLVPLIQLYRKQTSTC

[3] = target: Protein-tyrosine kinase 6 (Homo sapiens, UniProt Q13882); test: Selectivity interaction (Upstate Kinase Profiler service (Millipore)) EUB0000056c PTK6; conditions: at 1 µM
Sequence of Protein-tyrosine kinase 6 (Q13882 whole entry, looked up): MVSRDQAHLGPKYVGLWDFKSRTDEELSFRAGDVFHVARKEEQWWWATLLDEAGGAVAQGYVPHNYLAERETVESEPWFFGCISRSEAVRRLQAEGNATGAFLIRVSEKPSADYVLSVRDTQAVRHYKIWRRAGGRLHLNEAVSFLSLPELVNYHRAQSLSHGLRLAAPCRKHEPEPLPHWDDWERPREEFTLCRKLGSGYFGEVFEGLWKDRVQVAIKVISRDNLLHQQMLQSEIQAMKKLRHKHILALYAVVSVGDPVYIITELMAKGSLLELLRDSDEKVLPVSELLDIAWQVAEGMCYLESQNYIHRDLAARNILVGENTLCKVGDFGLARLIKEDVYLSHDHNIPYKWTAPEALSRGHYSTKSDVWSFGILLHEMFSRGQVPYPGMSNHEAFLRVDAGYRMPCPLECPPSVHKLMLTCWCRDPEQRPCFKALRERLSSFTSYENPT

[4] = target: T2, Protein kinase C zeta type (Homo sapiens) (UniProt Q05513); test: Selectivity interaction (Upstate Kinase Profiler service (Millipore)) EUB0000056c PRKCZ; conditions: at 1 µM
T2 sequence (whole entry): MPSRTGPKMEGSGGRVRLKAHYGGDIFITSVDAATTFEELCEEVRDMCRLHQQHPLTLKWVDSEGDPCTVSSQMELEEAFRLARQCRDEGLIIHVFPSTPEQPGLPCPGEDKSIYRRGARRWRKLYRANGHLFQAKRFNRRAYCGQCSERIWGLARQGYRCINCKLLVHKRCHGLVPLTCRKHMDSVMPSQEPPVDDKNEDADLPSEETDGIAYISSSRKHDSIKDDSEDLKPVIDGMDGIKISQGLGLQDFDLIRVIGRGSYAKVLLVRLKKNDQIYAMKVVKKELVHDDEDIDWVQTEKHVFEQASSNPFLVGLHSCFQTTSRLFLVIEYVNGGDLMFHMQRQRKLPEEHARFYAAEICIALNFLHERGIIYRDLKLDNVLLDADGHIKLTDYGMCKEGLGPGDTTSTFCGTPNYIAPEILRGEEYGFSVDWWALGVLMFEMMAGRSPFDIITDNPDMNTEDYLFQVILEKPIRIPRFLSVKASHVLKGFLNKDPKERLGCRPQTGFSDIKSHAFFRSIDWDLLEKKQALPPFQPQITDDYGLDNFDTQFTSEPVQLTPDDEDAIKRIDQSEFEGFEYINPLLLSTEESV

[5] = target: Serine/threonine-protein kinase MARK2 (Homo sapiens) (UniProt Q7KZI7); test: Selectivity interaction (ActivX KiNativ screen (kinase selectivity in THP-1 cell lysates)) EUB0000639a MARK2; format: subcellular; conditions: lysate, at 0.2 µM
Sequence of Serine/threonine-protein kinase MARK2 (Homo sapiens) (Q7KZI7 whole entry): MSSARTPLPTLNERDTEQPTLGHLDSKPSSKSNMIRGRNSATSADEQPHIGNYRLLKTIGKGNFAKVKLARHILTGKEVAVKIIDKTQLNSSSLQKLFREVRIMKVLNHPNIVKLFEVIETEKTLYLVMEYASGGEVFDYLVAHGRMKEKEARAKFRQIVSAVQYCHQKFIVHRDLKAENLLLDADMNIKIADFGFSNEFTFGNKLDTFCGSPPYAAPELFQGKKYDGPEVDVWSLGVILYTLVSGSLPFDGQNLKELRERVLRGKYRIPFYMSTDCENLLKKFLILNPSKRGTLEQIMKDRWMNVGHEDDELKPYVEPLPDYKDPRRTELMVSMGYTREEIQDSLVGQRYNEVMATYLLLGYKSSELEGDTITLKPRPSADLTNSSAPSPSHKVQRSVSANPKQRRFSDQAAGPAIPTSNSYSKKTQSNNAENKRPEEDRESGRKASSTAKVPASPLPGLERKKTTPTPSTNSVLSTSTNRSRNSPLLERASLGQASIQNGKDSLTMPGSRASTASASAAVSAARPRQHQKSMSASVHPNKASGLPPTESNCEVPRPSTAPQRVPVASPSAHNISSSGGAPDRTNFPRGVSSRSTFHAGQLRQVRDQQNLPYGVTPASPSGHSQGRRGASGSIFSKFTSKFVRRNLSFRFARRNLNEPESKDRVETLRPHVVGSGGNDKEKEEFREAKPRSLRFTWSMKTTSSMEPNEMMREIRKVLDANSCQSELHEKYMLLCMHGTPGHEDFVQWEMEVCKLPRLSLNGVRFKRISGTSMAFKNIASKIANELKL

[6] = target: Calcium/calmodulin-dependent protein kinase type 1 (Homo sapiens) (UniProt Q14012); test: Selectivity interaction (Kinase panel (Invitrogen)) EUB0000639a CAMK1; conditions: at 200 nM
Sequence of Calcium/calmodulin-dependent protein kinase type 1 (Homo sapiens) (Q14012 whole entry, looked up): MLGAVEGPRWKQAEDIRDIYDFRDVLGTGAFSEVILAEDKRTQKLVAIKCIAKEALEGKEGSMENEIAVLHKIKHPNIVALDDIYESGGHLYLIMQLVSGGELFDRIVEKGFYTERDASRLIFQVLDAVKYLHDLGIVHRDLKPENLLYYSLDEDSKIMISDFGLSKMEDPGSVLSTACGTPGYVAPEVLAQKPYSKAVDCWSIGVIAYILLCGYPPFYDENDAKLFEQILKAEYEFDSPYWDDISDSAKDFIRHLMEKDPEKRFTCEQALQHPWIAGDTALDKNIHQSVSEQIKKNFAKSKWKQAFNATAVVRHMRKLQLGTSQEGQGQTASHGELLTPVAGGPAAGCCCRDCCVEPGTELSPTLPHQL

[7] = target: Tyrosine-protein kinase CSK (Homo sapiens) (UniProt P41240); test: Selectivity interaction (ActivX KiNativ screen (kinase selectivity in THP-1 cell lysates)) EUB0000639a CSK; format: subcellular; conditions: lysate, at 0.04 µM
Sequence of Tyrosine-protein kinase CSK (Homo sapiens) (P41240 2-450 limits assumed): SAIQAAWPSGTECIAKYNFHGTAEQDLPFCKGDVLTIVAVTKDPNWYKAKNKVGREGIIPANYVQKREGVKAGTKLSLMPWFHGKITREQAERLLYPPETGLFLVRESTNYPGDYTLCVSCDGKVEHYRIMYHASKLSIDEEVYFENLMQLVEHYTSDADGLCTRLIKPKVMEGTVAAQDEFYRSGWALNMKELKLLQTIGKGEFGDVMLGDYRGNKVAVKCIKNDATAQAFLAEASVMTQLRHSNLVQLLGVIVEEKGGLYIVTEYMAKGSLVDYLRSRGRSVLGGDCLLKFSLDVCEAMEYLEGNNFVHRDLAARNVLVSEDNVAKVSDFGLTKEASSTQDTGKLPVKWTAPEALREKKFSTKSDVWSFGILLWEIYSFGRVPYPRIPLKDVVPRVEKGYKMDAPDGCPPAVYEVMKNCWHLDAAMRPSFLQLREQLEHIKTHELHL

[8] = target: T3, Serine/threonine-protein kinase Nek9 (Homo sapiens) (UniProt Q8TD19); test: Selectivity interaction (KinomeScan (DiscoverX)) EUB0000695a NEK9; conditions: at 100 nM
T3 sequence (whole entry): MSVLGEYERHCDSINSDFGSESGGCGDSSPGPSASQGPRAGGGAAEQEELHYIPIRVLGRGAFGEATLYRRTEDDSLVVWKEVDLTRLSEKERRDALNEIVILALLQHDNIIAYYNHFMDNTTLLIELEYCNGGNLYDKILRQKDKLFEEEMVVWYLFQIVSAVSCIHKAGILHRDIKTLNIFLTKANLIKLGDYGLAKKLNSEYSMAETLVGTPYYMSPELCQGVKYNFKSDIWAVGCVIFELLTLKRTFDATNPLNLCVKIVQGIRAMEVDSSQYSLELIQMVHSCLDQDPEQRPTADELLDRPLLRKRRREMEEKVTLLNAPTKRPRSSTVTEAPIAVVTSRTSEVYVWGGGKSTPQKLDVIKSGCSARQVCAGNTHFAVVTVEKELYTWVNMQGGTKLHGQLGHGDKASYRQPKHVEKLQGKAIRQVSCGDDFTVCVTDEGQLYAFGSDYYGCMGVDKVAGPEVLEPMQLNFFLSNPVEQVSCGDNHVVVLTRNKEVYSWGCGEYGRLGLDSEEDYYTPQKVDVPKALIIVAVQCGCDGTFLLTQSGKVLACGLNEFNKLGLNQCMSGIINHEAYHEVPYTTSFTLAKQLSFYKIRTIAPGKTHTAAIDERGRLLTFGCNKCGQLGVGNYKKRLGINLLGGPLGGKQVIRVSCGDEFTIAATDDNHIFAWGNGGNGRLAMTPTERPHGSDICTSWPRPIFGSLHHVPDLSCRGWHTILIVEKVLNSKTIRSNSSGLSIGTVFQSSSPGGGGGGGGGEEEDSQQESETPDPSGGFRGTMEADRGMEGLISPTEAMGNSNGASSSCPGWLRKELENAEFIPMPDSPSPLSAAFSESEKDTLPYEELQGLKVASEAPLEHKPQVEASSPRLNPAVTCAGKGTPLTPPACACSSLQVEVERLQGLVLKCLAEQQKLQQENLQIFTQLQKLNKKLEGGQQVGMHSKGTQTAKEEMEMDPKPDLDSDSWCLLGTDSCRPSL

For CNC(=O)Nc1ccc(-c2nc(N3CC4CCC(C3)O4)c3cnn(C4CCC5(CC4)OCCO5)c3n2)cc1, the % of control [1] was 100%.
COCC(=O)NC/C=C/c1ccc2ncnc(Nc3ccc(Oc4ccc(C)nc4)c(C)c3)c2c1 [CP-724714] was tested, and the % of control [2] was 89%.
Cc1ccc(-c2ccc3c(ccc4sc5c(c43)NC[C@@H](C)NC5=O)n2)cn1 showed a % of inhibition [3] of 0% and a % of inhibition [4] of -8%.
In the case of CC[C@@H]1[C@H](F)C(=O)N[C@@H]1COc1nccc2cc(C(N)=O)c(OC)cc12 [ZIMLOVISERTIB], the % of inhibition [5] is reported as 8.4%, the % of inhibition [6] is reported as -15.3% and the % of inhibition [7] is reported as 7.9%.
Cc1cc(F)c(C(=O)Nc2cccc(-c3nncn3C(C)C)n2)cc1-n1cnc(C2CC2)c1 was tested, and the % of control [8] was 100%.
